# Test results published in paper PMC10832398 (Molecular cancer therapeutics, 2023).
# “And” between values parts separate entries of the source, which are not always exact repeats. Identical values can stand only once.
# Key:
# [1] = test system: HS01 cells; assay: Combination matrix cell viability assay; format: cell-based, human
# [2] = test system: HS02 cells; assay: Combination matrix cell viability assay; format: cell-based, human
# [3] = test system: phospho-AKT, phospho-FAK, phospho-Src, EphA2, cyclin D1, p21 in HS01 cells; assay: Western blots of whole cell lysates of HS01 cells; format: cell-based, human; details: HS01, 24h
# [4] = test system: primary human vestibular schwannoma (VS) cells; assay: ApoTox-Glo viability in primary VS cells; format: cell-based; details: 96 hrs; omipalisib 16nM; dasatinib 200, 400, and 800nM
# [5] = Homo sapiens, 72 h, HS01, single drug within the combination matrix
# [6] = Homo sapiens, 72 h, HS02, single drug within the combination matrix
# [7] = HS01, single drug within the combination matrix, 72h
# [8] = HS02, single drug within the combination matrix, 72h
smiles,measurement,setting,value
Nc1cc(C(F)(F)F)c(-c2cc(N3CCOCC3)nc(N3CCOCC3)n2)cn1 [Buparlisib],GI50,[1]; [5],4.3 µM
same,GI50,[2]; [6],4.9 µM
"Cc1nc(Nc2ncc(C(=O)Nc3c(C)cccc3Cl)s2)cc(N2CCN(CCO)CC2)n1 [Dasatinib, dasatinib]",GI50,[1]; [5],> 10 µM
same,GI50,[2]; [6],> 10 µM
same,phosphorylated FAK-Tyr576 and Src-Tyr527,[3]; dasatinib 100 and 400nM alone or in combination,Dose-dependent decreases
CN(C)C1CCN(C(=O)c2ccc(NC(=O)Nc3ccc(-c4nc(N5CCOCC5)nc(N5CCOCC5)n4)cc3)cc2)CC1 [Gedatolisib],GI50,"[1]; Homo sapiens, 72 h",0.08 µM
same,GI50,"[2]; Homo sapiens, 72 h",0.09 µM
"COc1ncc(-c2ccc3nccc(-c4ccnnc4)c3c2)cc1NS(=O)(=O)c1ccc(F)cc1F [Omipalisib, omipalisib]",GI50,[1]; [7],0.02 µM
same,GI50,"[1]; Homo sapiens, alone in HS01 cells",0.05 to 0.08 µM
same,synergistic doses,"[1]; omipalisib/dasatinib matrix, Fig. 1A (HS01, HS02)",39 to 156 nM
same,Cyclin D1 levels,[3]; 0.1 μM,reduced
same,p21 levels,[3]; 0.1 μM,not observed
same,Phospho-AKT (T308 and S473) decrease,[3]; omipalisib 4 and 16nM alone or with dasatinib 100 and 400nM,91-99%
same,phosphorylated Src-Tyr527 levels compared to vehicle,[3]; omipalisib alone,increased
same,reduction in viability (mean fold change of all VS tumors),[4],≥ 20%
CN(c1ncccc1CNc1nc(Nc2ccc3c(c2)CC(=O)N3)ncc1C(F)(F)F)S(C)(=O)=O [PF-00562271],GI50,[2]; [8],6.5 µM and 3.8 µM
CNC(=O)c1ccccc1Nc1cc(Nc2ccc(N3CCOCC3)cc2OC)ncc1C(F)(F)F [PND-1186],GI50,[1]; [5],> 10 µM
same,GI50,[2]; [6],> 10 µM
CS(=O)(=O)N1CCN(Cc2cc3nc(-c4cccc5[nH]ncc45)nc(N4CCOCC4)c3s2)CC1 [Pictilisib],GI50,[2]; [6],> 10 µM
CNC(=O)c1ccccc1Nc1nc(Nc2ccc(N3CCOCC3)cc2OC)ncc1Cl [TAE226],GI50,[1]; [7],1 µM
same,GI50,[2]; [8],2.1 µM
CCn1c(=O)c(-c2cc[nH]n2)cc2c(C)nc(N)nc21 [Voxtalisib],GI50,[1]; [5],> 10 µM
same,GI50,[2]; [6],> 10 µM
